Experiments:
[1] = system: blood cells; assay: D5-ethanol release in blood incubated with D5-EG or D5-EG-ME (headspace measurement); type: cell-based; details: human blood, 37° C., 2 hours
Procedure: Aim—The following experiment was performed to compare the levels of D5-ethanol produced by blood cells from both D5-ethyl-βD-glucuronide and the D5-ethyl-βD-glucuronide-methyl ester impurity. To understand how the probe behaves in human blood. To determine the background cleavage of the probe (D5-ethyl-βD-glucuronide) and the methyl ester (D5-ethyl-βD-glucuronide-methyl ester) in blood at different concentrations. The cleaved D5-ethanol was extracted from the headspace of the blood and measured with the D5-ethanol analytical method.
• Dilute D5-ethyl-βD-glucuronide in PBS to 1 ug/ul. • Dilute 10 ul of this in 90 ul PBS to 100 ng/ul to use for smaller doses. • Blood drawn on the same day will be despatched to OML after it has been screened. • Aliquot 600 ul of blood into ITEX headspace vials. 10 vials for probe samples and 10 vials for methyl ester samples. • Add indicated concentration of D5-ethyl-βD-glucuronide (Table 1) and D5-ethyl-bD-glucuronide meth methyl ester (Table 2) in each vial. • Incubate all samples at 37° C. for 2 hours in the water bath. • After 2 hours add 100 uM D-saccharic acid-1,4-lactone with a syringe through septum of each ITEX vial and mix gently to inhibit β-glucuronidase activity and put on ice (4° C.) • Place samples on ITEX autosampler and measure D5-ethanol with D5-ethanol analytical method
Results—β-glucuronidase is only expected to be present intracellularly in blood cells. D5-ethyl-βD-glucuronide (D5-EG) is not cell permeable and would therefore not enter into the cells to get cleaved by b-glucuronidase to produce D5-ethanol. Low D5-ethanol levels are therefore expected in blood when incubated with D5-ethyl-βD-glucuronide.
D5-ethyl-βD-glucuronide-methyl ester (D5-EG-ME) is expected to be more cell permeable. If this is the case it would be able to enter into the cell to get cleaved by intracellular β-glucuronidase resulting in an increased in D5-ethanol production.

[2] = molecular target: T1, β-glucuronidase (Homo sapiens, UniProt P08236); assay: Breath test: D5-ethanol in exhaled breath after intravenous probe administration (TD-GC-MS); type: in vivo; details: for D5-ethanol detected on breath: 2 mg/kg intravenous
T1 construct: from tissue; host or cells: in vivo, human subjects (healthy subjects and a lung cancer patient); endogenous enzyme
T1 sequence (P08236 23-651): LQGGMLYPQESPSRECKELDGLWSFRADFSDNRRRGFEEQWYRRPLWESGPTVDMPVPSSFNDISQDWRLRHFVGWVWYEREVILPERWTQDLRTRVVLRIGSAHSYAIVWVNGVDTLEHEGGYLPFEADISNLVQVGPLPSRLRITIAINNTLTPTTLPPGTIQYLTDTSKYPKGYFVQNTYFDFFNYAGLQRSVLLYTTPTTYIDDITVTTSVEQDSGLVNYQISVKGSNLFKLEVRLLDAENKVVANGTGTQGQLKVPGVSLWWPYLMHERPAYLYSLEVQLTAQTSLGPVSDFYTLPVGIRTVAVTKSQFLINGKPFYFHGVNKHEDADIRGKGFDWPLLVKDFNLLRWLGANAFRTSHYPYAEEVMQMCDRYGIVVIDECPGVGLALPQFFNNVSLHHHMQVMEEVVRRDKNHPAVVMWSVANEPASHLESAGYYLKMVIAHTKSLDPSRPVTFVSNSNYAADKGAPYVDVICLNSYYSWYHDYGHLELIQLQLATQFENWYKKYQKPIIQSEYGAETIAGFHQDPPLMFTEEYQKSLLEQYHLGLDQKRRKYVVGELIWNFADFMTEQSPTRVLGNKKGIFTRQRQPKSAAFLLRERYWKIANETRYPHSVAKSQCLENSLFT
Procedure: D5-ethyl-βD-glucuronide was administered to healthy subjects and a lung cancer patient at a concentration of 2 mg/kg. Administration was intravenous.
The concentration of the metabolite was then measured in breath samples. Breath samples were collected using ReCIVA® Breath Sampler at the indicated times following probe administration. Following breath collection sorbent tubes were removed from ReCIVA®, capped off and sent to Owlstone Medical for analysis. At Owlstone Medical the sorbent tubes were analysed for D5-ethanol using TD-GC-MS.

[3] = system: tumor specific extracellular β-glucuronidase; details: healthy versus tumor bearing mice; cited from earlier work
[4] = highest concentration tested (FIG. 2)

Row | D5-ethanol detected on breath ([2]; healthy controls) | D5-ethanol detected on breath ([2]; lung cancer patient (Stage IIA)) | earliest time at which the metabolite (D5-ethanol) can be detected in breath after administration ([2]; lung cancer patient, 2 mg/kg intravenous (FIG. 6)) [min] | SMILES | D5-ethanol production from blood cells [1, 4] | D5-ethanol signal in breath [3] | D5-ethanol production from blood cells ([1]; second highest concentration tested (FIG. 2))
1 | No D5-ethanol was detected | A D5 ethanol signal was detected | 10 | [2H]C([2H])([2H])C([2H])([2H])O[C@@H]1O[C@H](C(=O)O)[C@@H](O)[C@H](O)[C@H]1O [D5-EG, D5-ethyl-βD-glucuronide] | only a small amount of D5-ethanol were produced | discriminatory D5-ethanol signal in the breath of mice with tumors | –
2 | – | – | – | [2H]C([2H])([2H])C([2H])([2H])O[C@@H]1O[C@H](C(=O)OC)[C@@H](O)[C@H](O)[C@H]1O [D5-EG-ME, D5-ethyl-βD-glucuronide-methyl ester] | much higher D5-ethanol levels produced | – | much higher D5-ethanol levels produced
